Measured values: publication PMC12408761, “Impact of physical activity on ethoxy- and propoxypropanol human toxicokinetics in vivo” (Archives of Toxicology, 2025)
Like-named read-outs stand apart in the source and are kept apart here.

Experiments:
[1] = set-up: method as in Groeseneken et al. [1986], [1987]; conditions: humans; ref Groeseneken et al. [1986], [1987]; cited from earlier work
[2] = Controlled human inhalation exposure (4 h in exposure chamber, at rest or with moderate physical activity): toxicokinetics in blood, urine and exhaled breath; type: in vivo; conditions: for Time at which Cmax was reached (Tmax): time after start of exposure; for average Cmax in exhaled breath: for a same concentration of exposure; for Time at which Cmax was reached: urine and exhaled breath; for Increase of urinary absorption rate with physical activity versus rest: first 2 h of exposure
Description: All exposure sessions were performed under controlled conditions at the Department of Occupational and Environmental Health, Center for Primary Care and Public Health (Unisanté), University of Lausanne, in Switzerland. PGEE or PGPE air concentrations were generated in a 12 m^3 exposure chamber (Guillemin [1975]) and monitored electronically (Lab VIEW software, National Instruments Corporation, Texas, USA) with a portable infrared spectroscopy gas analyzer for ambient air analysis (GASMET™ analyzer DX-4040 Gasmet Oy, Helsinki technologies, Finland) (Devanthery et al. [2003]; Tomicic et al. [2011]). During each exposure session, the participant spent 4 h inside the exposure chamber, and then 2 h outside in a solvent-free area. Each participant took part in four different exposure sessions comprising four different experimental conditions. Three sessions were performed at rest at either 25, 30, and 35 ppm of PGEE or 15, 20, and 25 ppm of PGPE. The fourth session was performed with moderate physical activity at 35 ppm of PGEE or 25 ppm of PGPE (Fig. 1).
The air concentrations were below the existing OEL for PGEE, i.e., 50 ppm. Given the absence of an OEL for PGPE, the chosen concentrations were previously tested to ensure odor tolerance for participants. The participants performed the physical activity at 1.5 W/kg on an ergonomic bicycle (Corival, Lode B.V., Groningen, The Netherlands) for 30 min twice during the same exposure session: the first without solvent exposure and the second with PGEE or PGPE. The physical activity design was adapted after discussion with sports science researchers from the University of Lausanne. A minimum of 48 h between two exposure sessions was determined to avoid possible cumulative exposure (Borgatta et al. [2022]). Blood, urine, and exhaled breath samples were collected before, during, and after all exposure sessions. The timing of sample collection was based on previous studies and protocol testing.
The blood samples were collected with an intravenous catheter inserted in the participant’s forearm by a research nurse into glass tubes (Vacutainers® NH Heparine Sodium, Becton Dickinson AG, Basel, Switzerland). A first blood sample was collected before the exposure session in a solvent-free area and used as baseline value. The timing following the first blood sample was 30, 120, 180, 240, 255, 300, and 360 min after the exposure to PGE started. The last blood sample was collected 24 h post-exposure. The blood samples were kept in the dark at 4 °C until analysis.
The participants were asked to provide a urine sample before the exposure session (solvent-free area, baseline) and then, every 2 h over 6 h. The participants continued to collect their urine (ad lib) samples at home for additional 24 h and bring them back in a cooler with cooling elements the day after the exposure session. They provided urine collection date, time, and total urinary volume. All urine samples were stored in polypropylene cups in the dark at 4 °C (Borgatta et al. [2021]). The cold storage is important to avoid any loss of substance as glycol ethers are volatile organic compounds.
The exhaled breath samples were collected using a non-invasive simple-to-use device for biological exposure monitoring of volatile organic compounds (BioVOC-2 Breath Sampler, Brechbühler, Schlieren, Switzerland). The last portion of expired breath (129 mL) was collected on thermal desorption (TD) tubes (Tenax® TA, Camsco, Böckten, Switzerland) from each participant. A first exhaled breath sample was collected before the exposure session in a solvent-free area (baseline). The timing following the first exhaled breath sample was 120, 240, 255, 260, 265, 270, 275 and 360 min after exposure had started and a last one 24 h post exposure. Exhaled breath samples were analyzed immediately after collection. […]

[3] = blood, at rest, 4 h inhalation, geometric mean ± SD
[4] = blood, physical activity, 35 ppm PGEE or 25 ppm PGPE, geometric mean ± SD
[5] = human, inhaled or intranasal, blood, at rest, 4 h inhalation (PGEE 25-35 ppm, PGPE 15-25 ppm), geometric mean ± SD
[6] = human, inhaled or intranasal, blood, at rest, 4 h inhalation, geometric mean ± SD, read-out: Cmax
[7] = human, inhaled or intranasal, urine, at rest, 4 h inhalation (PGEE 25-35 ppm, PGPE 15-25 ppm), geometric mean ± SD
[8] = human, inhaled or intranasal, urine, at rest, 4 h inhalation, geometric mean ± SD, read-out: Cmax
[9] = human, inhaled, blood, at rest, for a same concentration of exposure (25 ppm), read-out: average Cmax in blood
[10] = human, inhaled, blood, at rest, read-out: half-life in blood
[11] = human, inhaled, blood, physical activity (30 min, 1.5 W/kg), 35 ppm PGEE or 25 ppm PGPE, geometric mean ± SD
[12] = human, inhaled, blood, physical activity, 35 ppm PGEE or 25 ppm PGPE, geometric mean ± SD, read-out: Cmax
[13] = human, inhaled, exhaled breath, all exposure conditions, read-out: Half-life (converted)
[14] = human, inhaled, urine, physical activity (30 min, 1.5 W/kg), 35 ppm PGEE or 25 ppm PGPE, geometric mean ± SD
[15] = human, inhaled, urine, physical activity, 35 ppm PGEE or 25 ppm PGPE, geometric mean ± SD, read-out: Cmax
[16] = urine, at rest, 4 h inhalation, geometric mean ± SD
[17] = urine, physical activity, 35 ppm PGEE or 25 ppm PGPE, geometric mean ± SD

SMILES | exhalation as share of the total uptake [1] | Absorption (absorption rate) [2, 3] | Time at which Cmax was reached (Tmax) ([2]; blood, at rest) | Absorption (absorption rate) [2, 4] | Share of total blood uptake quantified in exhaled breath (AUC exhaled breath / AUC blood) ([2]; exhaled breath) | average Cmax in exhaled breath ([2]; exhaled breath, at rest) | AUC [2, 5] | Cmax [2, 6] | AUC [2, 7] | Cmax [2, 8] | Cmax [2, 9] | half-life [2, 10] | AUC [2, 11] | Cmax [2, 12] | half-life [2, 13] | AUC [2, 14] | Cmax [2, 15] | Time at which Cmax was reached ([2]; all conditions) | Absorption (absorption rate) [2, 16] | Increase of urinary absorption rate with physical activity versus rest ([2]; urine) | also measured
CCOCCO [EGEE, ethylene glycol ethyl ether] | less than 0.4% | – | – | – | – | – | – | – | – | – | – | – | – | – | – | – | – | – | – | – | –
CCOCCOC(C)=O [EGEEAc] | less than 0.4% | – | – | – | – | – | – | – | – | – | – | – | – | – | – | – | – | – | – | – | –
CCOCC(C)O (centres unmarked) [PGEE, propylene glycol ethyl ether] | – | 0.013 ± 0 µg/mL/h*ppm | 240 min | 0.038 ± 0.004 µg/mL/h*ppm | less than 0.5% | 2.81 ± 0.76 ppm | 7320 ng·h/mL | 1070 ± 300 ng/mL | 5050 ng·h/mL | 1070 ± 210 ng/mL | 810 ± 80 ng/mL | 60 min | 16600 ng·h/mL | 2760 ± 260 ng/mL | 2.88 min | 8820 ng·h/mL | 1810 ± 470 ng/mL | at the end of exposure | 0.010 ± 0.002 µg/mL/h*ppm | 1.5 times | Blood concentration following PGEE exposure compared to PGPE ([2]; blood, same concentration of exposure (25 ppm)): 1.3 fold; half-life ([2]; human, inhaled, urine, all exposure conditions, read-out: Half-life (converted)): 78 min; Absorption (absorption rate) [2, 17]: 0.014 ± 0.003 µg/mL/h*ppm
CCCOCC(C)O (centres unmarked) [PGPE, propylene glycol propyl ether] | – | 0.011 ± 0 µg/mL/h*ppm | 180 min | 0.024 ± 0.002 µg/mL/h*ppm | 1.1% | 2.25 ± 0.66 ppm | 2650 ng·h/mL | 500 ± 130 ng/mL | 1910 ng·h/mL | 450 ± 110 ng/mL | 650 ± 90 ng/mL | 54 min | 5130 ng·h/mL | 1230 ± 90 ng/mL | 2.28 min | 3090 ng·h/mL | 710 ± 140 ng/mL | at the end of exposure | 0.007 ± 0.0017 µg/mL/h*ppm | did not differ significantly | half-life ([2]; human, inhaled, urine, all conditions, read-out: urinary half-life): 54 min; Share of total blood uptake quantified in urine (AUC urine / AUC blood) ([2]; urine): 69.5%; half-life ([2]; urine, all exposure conditions): 54 min; Absorption (absorption rate) [2, 17]: 0.0087 ± 0.0008 µg/mL/h*ppm
